Measurements reported in US12545653B2, “Compound as PPAR agonist and application thereof” (USA Elixiria Biotech Inc., priority 2019, dated 2026).
Where “and” joins values, the source holds several entries; their conditions need not be identical. Equal values may be shown once.

Experiments:
PPARγ = target: T1, PPARγ (Homo sapiens, UniProt P37231); assay: In vitro transcriptional activity of PPARγ gene (PPRE-luciferase reporter, HEK 293 T cells); assay type: cell-based; details: HEK 293 T cells transfected with PPARγ expression and PPRE-luc plasmids, 21 hours; read-out: EC50 of PPARγ gene activation
T1 construct: expressed in transfected cells; host or cells: HEK 293 T cells
T1 sequence (P37231 1-505): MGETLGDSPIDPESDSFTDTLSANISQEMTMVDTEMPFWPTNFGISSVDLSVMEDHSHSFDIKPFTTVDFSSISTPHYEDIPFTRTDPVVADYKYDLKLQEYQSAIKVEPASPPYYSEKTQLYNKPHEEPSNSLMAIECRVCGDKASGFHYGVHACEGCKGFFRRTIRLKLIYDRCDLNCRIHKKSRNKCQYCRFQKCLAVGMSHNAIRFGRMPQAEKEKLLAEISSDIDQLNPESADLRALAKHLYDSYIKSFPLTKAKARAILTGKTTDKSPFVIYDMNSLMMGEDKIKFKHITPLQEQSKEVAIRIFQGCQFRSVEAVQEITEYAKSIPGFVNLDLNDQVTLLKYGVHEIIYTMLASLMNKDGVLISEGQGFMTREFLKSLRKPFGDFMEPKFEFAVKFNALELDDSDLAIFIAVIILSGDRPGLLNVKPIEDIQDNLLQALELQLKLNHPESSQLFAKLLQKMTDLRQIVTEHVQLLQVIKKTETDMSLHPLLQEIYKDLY
Text: In this experiment, the PPARγ gene was used as target gene to detect the in vitro transcription activity of the compounds. The compounds of interest were detected was first dissolved with dimethyl sulfoxide (DMSO). […] First two plasmids were constructed: PPARγ protein expression plasmid and luciferase reporter plasmid. They are both from the lentiviral plasmid pLV-CMVIE-ZsGreen-Puro, whose DNA sequence contains the cytomegalovirus immediate early (CMVie) promoter, ZsGreen and Puro dual reporter. The PPARγ expression plasmid pLV-CMVIE-PPAR[…]-ZsGreen-Puro was constructed by cloning full-length coding sequences of the pertinent receptors into pHBLV-CMVIE-ZsGreen-Puro vector. To construct the luciferase (luc) reporter plasmid pLV-PPRE-luc-ZsGreen-Puro, the CMVie promoter in plasmid pHBLV-CMVIE-ZsGreenPuro was first replaced by a peroxisome proliferator responsive element (PPRE) containing fragments comprised the nucleotide sequence 50-[…], repeated four times in tandem, to generate a new plasmid, at a multiple cloning site of which the luc gene was then inserted. […] The compounds used for screening are representatives for compounds listed in Table 2, and Tables 3 of the present invention. […] Cells were distributed in 10-cm tissue culture plates at a density of 5.5 million cells per plate, and then transfected with the luciferase reporter plasmid (6 nanogram/plate) and the PPARγ expression plasmid (18 nanogram/plate). Cells were cultured for 6 hours. […] Then the cells were distributed in 96-well plates at a density of 20,000 cells per well. After incubation for 6 h, compounds or control with different concentration were placed into each well, resulting in the finical concentration of […] with each concentration in triplicate. Twenty-one hours later, promoter activation was detected by the addition of SteadyLite (PerkinElmer, Waltham, MA) and GloMax 96 Microplate Luminometer (Promega, Madison, WI). The amount of Luminometer emitted from each well is positively correlated with the expression of PPARγ gene. A three-parameter Sigmoid function curve was used to fit the obtained data. The abscissa represents the logarithmic value of the concentration, and the ordinate represents the percentage of PPARγ gene activation relative to those of the control. […] In Statistical analysis, the coefficient of variation is used to measure the robustness and repeatability of the experiment. […] The difference is significant with P<0.05. EC50 is a parameter of its activity.

db−/db− mice = assay: Diabetic peripheral neuropathy model, Von Frey threshold, sciatic nerve ROS and MDA; assay type: in vivo, mouse; details: in food 10 mg/kg body weight/day (pregabalin 30 mg/kg body weight/day); for level of MDA in the sciatic nerve after 10 week treatment / level of mitochondrial ROS in the sciatic nerve after 10 week treatment: compared with healthy control group; for mechanical pain threshold after 10 week treatment: compared with normal control group
Description: Male 5-6 week-old male db^−/db^− mice were used in the experiment, and their normoglycemic heterozygous littermates were used as controls. db^−/db^− is a commonly used type 2 diabetes animal model. The compounds was dissolved in DMSO and mixed into food pellets. The animals were given ad libitum access to the pellets, beginning from 8 to 9 weeks of age for 10 weeks. […] The method for detecting mice hindlimb hypersensitivity is performed using Von Frey filaments. […] The difference is significant with P<0.05. The increase of mitochondrial reactive oxygen species (ROS) in the sciatic nerve of mice, which in turn leads to the increase of intracellular malondialdehyde (MDA), is the etiology of this type of neuropathic pain. The efficacy of compound to treat the root cause of the disease was evaluated by measurement of the levels of MDA and mitochondrial ROS from the sciatic nerves.

APP/PS1 transgenic mice = assay: Alzheimer's disease model, eight-arm radial water maze and brain gene expression; assay type: in vivo, mouse; details: 30 days in food, 10 mg/kg body weight/day (donepezil 3 mg/kg body weight/day), 5 on the first day
Text: A common indicator used in academia in memory and dementia experiments is the number of errors in the water maze (reference memory). More errors mean poorer memory. On the last 3 days of dosing, eight-arm radial water maze was used by experimenters who were blind to drug treatment. As a classic experimental instrument, to detect slight deficits in learning and memory, the eight-arm water maze is more sensitive than not only Morris maze, but also Six-arm radial water maze. For details, see reference 8: Alamed J et al. Two-day radial-arm water maze learning and memory task; robust resolution of amyloid-related memory deficits in transgenic mice [J]. […] This experiment uses an eight-arm water maze built in accordance with the above literature. The eight-arm water maze is placed in a basin with an interior diameter of 102 cm. Each arm measures 30 cm long, 14.5 cm wide, and 40 cm high. Escape platform is located at the end of one of the arms. In the reference memory version of the task described here, the goal arm is held constant for all trials, with a different start arm on successive trials. On day one, mice received 12 trials, with trials alternating between visible and hidden platform. On day 2 and 3, mice received 12 additional trials but the platform was kept hidden throughout the trials. Entry into an incorrect arm was scored as a spatial reference error. Errors were averaged into three trial blocks, with four blocks per day, e.g., the first block (the 1st to 3rd trial), the second block (the 4th to 6th trial), and so on. […]. The line charts were made with the number of blocks as the abscissa and the average of the number of errors as the ordinate. At the end of the experiments, the cerebral cortex and hippocampus of the mice were removed, RNA was extracted, and the expression of many genes was analyzed by semi-quantitative RT-PCR. […] The difference is significant with P<0.05.

klotho gene = assay: In vivo brain transcriptional activity of klotho gene (RT-PCR of brain mRNA); design: species or system mouse; details: 10 mg/kg body weight/day tail vein; for mRNA level of klotho gene in the brain of the mouse relative to vehicle control group: after 10 days of continuous injection; for fold induction at 10 mg/kg: Mus musculus, iv, 720 h, after 30 days of continuous injection, read-out: mRNA level of klotho gene in the brain of the mouse relative to vehicle control group
Description: To verify this hypothesis, adult male Kunming mice were used in the experiments. […] The injection volume is 8 ml/kg body weight. Dimethyl sulfoxide (DMSO) was used as a vehicle control of the compounds. […] The RNA was then reverse-transcribed to the cDNA, and quantified by SYBR Green fluorescence quantitative PCR kit (HaiGene) and a quantitative PCR system (Bio-Rad Min-Opticon Type 2) were used for real-time fluorescent quantitative polymerase chain reaction (RT-PCR). The mouse gene primers were design as follows: • KLOTHO-forward 5′-[…]-3′; • LOTHO-reverse 5′-[…]-3′; • GAPDH-forward 5′-[…]-3′; • GAPDH-reverse 5′-[…]-3′.
Data analysis was performed using the 2^−ΔΔct method. Semi-quantitative values of gene expression were then normalized by the control mean.

klotho gene promoter = assay: In vitro transcriptional activity of klotho gene (KL-Luc-3 luciferase cell line); assay type: cell-based; details: 16 h, KL-Luc-3 cells, 16 hours incubation
Text: The activities of these carbonyl-containing cyclic compounds are indicated by the increased expression of klotho gene. […] The present invention retains the DNA fragment of the klotho gene promoter, but replaces the DNA sequence of the coding region of the klotho gene with those of luciferase, so that the degree of activation of the klotho gene promoter and the expression of the klotho gene will be sensitively determined by detecting the luciferase luminescence signal.
Klotho is an important downstream gene of PPARγ pathway. The following experiments tested the properties of the compounds in Table 2 and 3 to activate the klotho gene in vitro. First, a stable cell line, KL-Luc, was constructed. The klotho gene carried by the cell line retained the DNA sequence of klotho gene promoter, but the coding sequence of the klotho gene was replaced with luciferase. KL-Luc fragment includes a promoter sequence of the klotho gene (a DNA region of 18,000 base pairs in length upstream of the transcription start site of the gene) and a luciferase-encoding sequence. To construct the KL-Luc sequence containing lentiviral vector, the KL-Luc fragment was cloned into the pDONR vector using BP recombinase, so that the target fragment had attL recombination sites on both sides. Then the KL-Luc fragment was transferred from the pDONR vector to a lentiviral vector (without exogenous promoter) pLenti6/BLOCK-IT-DEST. The constructed lentiviral vector of the target fragment was then transfected into HEK293T cells, and then the KL-Luc gene lentiviral expression vector and the […] were co-transfected into HEK293T cells to perform lentiviral packaging. The virus was harvested, and virus titer was calculated. And the lentivirus was used to infect target cells. The stable strains were screened by adding drugs. Finally, monoclonal cell lines were selected from polyclonal cells by cell cloning. The effective luciferase expression of each monoclonal cell line was determined by quantitative polymerase chain reaction (qPCR). The inventors chose a third monoclonal cell line (KL-Luc-3) to continue the compound screening. The compounds of interest were the compounds in Table 2 and 3. At the same time, rosiglitazone and pioglitazone were used as a control. KL-Luc-3 cells were divided into 96-well plates at 5000 cells in 80 microL per well, cultured in a 37° C. carbon dioxide incubator with serum-free Duchenne's Modified Eagle's Medium (DMEM) for 6 hours, and then the compounds were added to a final concentration of 0, 0.1, 0.3, 1, 3, 10, 30 micromole/L, with each concentration in triplicate. After 16 hours of incubation, the SteadyLite (PerkinElmer, Waltham, MA) and the GloMax Microplate Luminometer (Promega, USA) were used for quantitation of luciferase activity. The amount of luminescence emitted from each well is positively related to the transcriptional activity of the klotho promoter. A three-parameter Sigmoid function curve was used to fit the obtained data. The abscissa represents the logarithmic value of the concentration, and the ordinate represents the percentage of the activity relative to those of the control. […] In Statistical analysis, the coefficient of variation is used to measure the robustness and repeatability of the experiment. […] The difference is significant with P<0.05. EC50 is a parameter of its activity. The lower the EC50 value, the higher the activity of corresponding compound.

[1] = tested on: dIoN-CCI rat model of trigeminal neuropathic pain; assay: Trigeminal neuralgia model (dIoN-CCI), Von Frey mechanical threshold; details: dIoN-CCI rats
Description: A common rat model of trigeminal neuralgia is a chronic compression injury model (CCI) caused by ligation of the infraorbital nerve (IoN). In the present study, an improved rat model of trigeminal neuropathic pain was used, in which CCI is induced by ligation of distal segment of IoN (dIoN). Wild type male Sprague-Dawley rats with body weight 250 to 260 grams underwent dIoN-CCI surgery experiments. The mechanical threshold of pain in rats without surgery experiments will exceed 6 grams. If the dIoN-CCI surgery is successful, it will reduce the pain threshold to less than 2 grams.
The mice were divided into the following 11 groups with 4 to 5 mice in each group. The formulation used for transdermal treatment is cream. […] The compound administration of each group starts on the third day after successful dIoN-CCI surgery. […] The method for detecting rat facial hypersensitivity is performed using Von Frey filaments. An analysis of variance (ANOVA) and Dunnett post hoc comparison test are used to compare the significance of the differences between different groups of data. The difference is significant with P<0.05.

| Compound | EC50 (PPARγ) | mRNA level of klotho gene in the brain of the mouse relative to vehicle control group (klotho gene) | fold induction at 10 mg/kg (klotho gene) | also measured |
| --- | --- | --- | --- | --- |
| CCc1ccc(CC/C=C/c2ccc3c(c2)C(=O)CCO3)cc1 [ELB001080, (E)-6-(4-(4-ethylphenyl)but-1-en-1-yl)chroman-4-one] | < 6.4 µM |  |  | level of MDA in the sciatic nerve after 10 week treatment (db−/db− mice): reduced; level of mitochondrial ROS in the sciatic nerve after 10 week treatment (db−/db− mice): reduced; mechanical pain threshold after 10 week treatment (db−/db− mice): significantly improved; number of errors in water maze on the third day (APP/PS1 transgenic mice): comparable to that of ELB00824 |
| CCc1ccc(CCCCc2ccc3c(c2)OCCC(=O)N3)cc1 [ELB00827, 8-(4-(4-ethylphenyl)butyl)-2,3-dihydrobenzo[b][1,4]oxazepin-4(5H)-one] | < 6.4 µM | more than twice | > 5 | EC50 (klotho gene promoter): < 9.7 µM |
| CC(C)C[C@H](CN)CC(=O)O [pregabalin, reference compound] |  |  |  | level of MDA in the sciatic nerve after 10 week treatment (db−/db− mice): significantly higher; level of mitochondrial ROS in the sciatic nerve after 10 week treatment (db−/db− mice): significantly higher; mechanical pain threshold after 10 week treatment (db−/db− mice): no difference |
| CCc1ccc(CC/C=C/c2ccc3c(c2)NC(=O)CO3)cc1 [ELB00993, (E)-6-(4-(4-ethylphenyl)but-1-en-1-yl)-2H-benzo[b][1,4]oxazin-3(4H)-one] | < 6.4 µM | more than twice | > 5 |  |
| CCc1ccc(CCCCc2ccc3c(c2)NC(=O)CC3)cc1 [ELB00702, 7-(4-(4-ethylphenyl)butyl)-3,4-dihydroquinolin-2(1H)-one] | < 6.4 µM and 3.1 µM | more than twice | > 5 |  |
| NCC1(CC(=O)O)CCCCC1 [gabapentin, reference compound] |  |  |  | side effect at the time of administration [1]: drowsiness; duration of the anti-allodynic effect ([1]; oral gabapentin group (1 mg/kg body weight)): 1 h |
| CCc1ccc(C/C=C/c2cccc(CC3NCC(=O)N3)c2)cc1 (centres unmarked) [ELB001090, (E)-2-(3-(3-(4-ethylphenyl)prop-1-en-1-yl)benzyl)imidazolidin-4-one] | < 6.4 µM and 3.9 µM | more than twice |  | EC50 (klotho gene promoter): < 9.7 µM |
